{"source": "the kinase profiling compilation of Christmann-Franck et al. (2016)", "assay_in_all_cases": "KINOMEscan competition binding", "conditions_in_all_cases": "compound 10.0 µM", "key": {"[1]": {"system": "RET (human), P07949 [V804M]", "sequence (P07949 whole entry V804M, looked up)": "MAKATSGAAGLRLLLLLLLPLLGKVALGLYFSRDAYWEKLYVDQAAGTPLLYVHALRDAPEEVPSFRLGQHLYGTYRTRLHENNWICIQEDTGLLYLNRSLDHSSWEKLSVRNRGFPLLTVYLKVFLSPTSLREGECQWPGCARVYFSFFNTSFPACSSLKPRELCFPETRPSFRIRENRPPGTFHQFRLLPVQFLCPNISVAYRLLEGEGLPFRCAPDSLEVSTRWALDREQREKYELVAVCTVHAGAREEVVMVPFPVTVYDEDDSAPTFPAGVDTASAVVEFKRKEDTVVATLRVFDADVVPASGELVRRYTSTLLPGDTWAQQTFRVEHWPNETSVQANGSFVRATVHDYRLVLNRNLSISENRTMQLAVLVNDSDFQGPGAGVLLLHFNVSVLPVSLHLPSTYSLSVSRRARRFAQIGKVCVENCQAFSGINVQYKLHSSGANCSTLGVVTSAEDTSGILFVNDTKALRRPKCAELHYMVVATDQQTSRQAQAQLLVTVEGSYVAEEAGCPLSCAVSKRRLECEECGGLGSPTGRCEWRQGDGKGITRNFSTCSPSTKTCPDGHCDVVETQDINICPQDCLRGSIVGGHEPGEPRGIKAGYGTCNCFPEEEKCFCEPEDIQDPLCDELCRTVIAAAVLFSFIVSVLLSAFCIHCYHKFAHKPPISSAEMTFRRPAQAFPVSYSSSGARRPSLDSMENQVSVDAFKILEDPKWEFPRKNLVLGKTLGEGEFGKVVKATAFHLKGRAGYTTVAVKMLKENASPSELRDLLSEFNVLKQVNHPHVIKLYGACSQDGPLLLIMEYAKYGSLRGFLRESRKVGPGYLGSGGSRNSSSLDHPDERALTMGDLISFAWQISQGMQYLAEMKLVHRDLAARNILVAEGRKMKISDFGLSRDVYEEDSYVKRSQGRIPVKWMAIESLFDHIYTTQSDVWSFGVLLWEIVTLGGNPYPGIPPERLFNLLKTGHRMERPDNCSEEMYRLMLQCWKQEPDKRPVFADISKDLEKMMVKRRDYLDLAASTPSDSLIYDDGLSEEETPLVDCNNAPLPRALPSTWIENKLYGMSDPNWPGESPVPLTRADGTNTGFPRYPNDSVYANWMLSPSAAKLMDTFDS"}, "[2]": {"system": "MET (human), P08581 [Y1235D]"}, "[3]": {"system": "EGFR (human), P00533 [752-759 del]"}, "[4]": {"system": "KIT (human), P10721 [L576P]", "sequence (P10721 whole entry L576P, looked up)": "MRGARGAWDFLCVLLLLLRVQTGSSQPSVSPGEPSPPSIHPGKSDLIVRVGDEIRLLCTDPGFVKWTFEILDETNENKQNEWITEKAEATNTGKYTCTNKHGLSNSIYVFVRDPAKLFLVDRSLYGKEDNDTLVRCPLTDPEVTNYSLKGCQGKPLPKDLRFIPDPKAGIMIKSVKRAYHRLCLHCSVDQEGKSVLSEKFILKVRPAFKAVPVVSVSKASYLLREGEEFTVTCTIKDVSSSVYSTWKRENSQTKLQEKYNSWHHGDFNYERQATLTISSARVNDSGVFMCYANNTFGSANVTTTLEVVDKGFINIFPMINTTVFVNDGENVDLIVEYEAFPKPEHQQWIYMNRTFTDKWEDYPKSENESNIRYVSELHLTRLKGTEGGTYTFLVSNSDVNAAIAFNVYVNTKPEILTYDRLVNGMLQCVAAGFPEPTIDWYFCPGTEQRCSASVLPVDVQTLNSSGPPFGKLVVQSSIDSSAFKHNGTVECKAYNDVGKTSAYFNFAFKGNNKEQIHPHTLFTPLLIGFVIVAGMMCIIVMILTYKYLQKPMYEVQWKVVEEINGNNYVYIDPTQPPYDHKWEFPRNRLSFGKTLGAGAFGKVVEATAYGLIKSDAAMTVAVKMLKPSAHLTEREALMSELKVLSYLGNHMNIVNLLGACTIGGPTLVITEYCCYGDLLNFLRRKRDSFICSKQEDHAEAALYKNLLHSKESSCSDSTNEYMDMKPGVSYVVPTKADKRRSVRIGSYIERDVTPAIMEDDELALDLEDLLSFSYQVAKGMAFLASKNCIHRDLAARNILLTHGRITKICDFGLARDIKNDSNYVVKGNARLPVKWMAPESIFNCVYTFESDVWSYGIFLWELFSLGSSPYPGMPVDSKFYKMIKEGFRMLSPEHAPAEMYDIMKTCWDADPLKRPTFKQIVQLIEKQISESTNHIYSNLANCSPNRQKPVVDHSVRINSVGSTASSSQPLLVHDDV"}, "[5]": {"system": "ABL1 (human), P00519 [Y253F]"}, "[6]": {"system": "ABL1 (human), P00519 [H396P]"}, "[7]": {"system": "KIT (human), P10721 [V559D/V654A]", "sequence (P10721 whole entry V559D/V654A, looked up)": "as the sequence (P10721 whole entry L576P, looked up) above, with V559D, P576L, V654A counted along it"}, "[8]": {"system": "FLT3 (human), P36888 [D835H]"}, "[9]": {"system": "RET (human), P07949 [M918T]", "sequence (P07949 whole entry M918T, looked up)": "as the sequence (P07949 whole entry V804M, looked up) above, with M804V, M918T counted along it"}, "[10]": {"system": "EGFR (human), P00533 [T790M/L858R]"}, "[11]": {"system": "EGFR (human), P00533 [747-751 del / S ins]"}, "[12]": {"system": "EGFR (human), P00533 [T790M]"}, "[13]": {"system": "ALK (human), Q9UM73 [L1196M]", "sequence (Q9UM73 whole entry L1196M, looked up)": "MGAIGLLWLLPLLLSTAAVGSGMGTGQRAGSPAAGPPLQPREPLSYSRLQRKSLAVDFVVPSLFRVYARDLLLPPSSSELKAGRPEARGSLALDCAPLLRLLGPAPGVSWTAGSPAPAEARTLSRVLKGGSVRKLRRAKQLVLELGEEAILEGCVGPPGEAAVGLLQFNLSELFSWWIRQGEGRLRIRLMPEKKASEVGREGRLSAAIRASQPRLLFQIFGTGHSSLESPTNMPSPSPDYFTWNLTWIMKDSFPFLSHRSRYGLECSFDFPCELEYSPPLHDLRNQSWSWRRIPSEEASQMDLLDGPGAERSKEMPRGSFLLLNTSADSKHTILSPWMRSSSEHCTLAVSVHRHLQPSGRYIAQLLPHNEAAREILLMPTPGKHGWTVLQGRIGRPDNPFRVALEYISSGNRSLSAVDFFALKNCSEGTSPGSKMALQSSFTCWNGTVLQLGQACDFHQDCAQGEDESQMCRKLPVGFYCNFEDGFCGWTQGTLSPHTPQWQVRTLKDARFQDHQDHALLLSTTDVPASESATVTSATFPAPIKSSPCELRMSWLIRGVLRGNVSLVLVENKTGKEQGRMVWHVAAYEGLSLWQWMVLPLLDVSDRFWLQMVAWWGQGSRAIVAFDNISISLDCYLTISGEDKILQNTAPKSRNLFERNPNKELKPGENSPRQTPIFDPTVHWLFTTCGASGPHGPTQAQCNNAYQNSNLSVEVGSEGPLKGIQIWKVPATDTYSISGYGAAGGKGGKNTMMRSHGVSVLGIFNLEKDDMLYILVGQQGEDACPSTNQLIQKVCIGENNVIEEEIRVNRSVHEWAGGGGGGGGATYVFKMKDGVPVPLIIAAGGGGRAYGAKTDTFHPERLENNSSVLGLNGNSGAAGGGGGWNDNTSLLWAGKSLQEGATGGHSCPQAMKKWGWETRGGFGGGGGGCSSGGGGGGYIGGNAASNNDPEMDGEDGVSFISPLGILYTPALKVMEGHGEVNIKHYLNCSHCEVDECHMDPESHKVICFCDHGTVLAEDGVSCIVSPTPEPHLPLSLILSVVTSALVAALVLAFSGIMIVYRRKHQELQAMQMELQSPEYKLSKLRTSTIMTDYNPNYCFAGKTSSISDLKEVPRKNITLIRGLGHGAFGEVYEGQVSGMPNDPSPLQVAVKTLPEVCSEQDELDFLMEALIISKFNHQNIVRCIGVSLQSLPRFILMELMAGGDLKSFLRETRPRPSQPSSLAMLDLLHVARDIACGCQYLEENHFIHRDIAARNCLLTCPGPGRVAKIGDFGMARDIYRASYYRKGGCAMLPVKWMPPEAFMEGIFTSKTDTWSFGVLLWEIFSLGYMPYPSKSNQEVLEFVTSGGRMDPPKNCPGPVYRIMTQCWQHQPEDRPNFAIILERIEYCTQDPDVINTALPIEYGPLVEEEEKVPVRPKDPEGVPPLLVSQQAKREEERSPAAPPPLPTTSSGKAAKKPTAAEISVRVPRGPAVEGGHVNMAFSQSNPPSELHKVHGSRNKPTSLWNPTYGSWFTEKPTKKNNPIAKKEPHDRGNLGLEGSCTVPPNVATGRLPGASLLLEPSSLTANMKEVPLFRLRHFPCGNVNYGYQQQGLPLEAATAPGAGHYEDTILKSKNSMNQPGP"}, "[14]": {"system": "ALK (human), Q9UM73 [C1156Y]", "sequence (Q9UM73 whole entry C1156Y, looked up)": "as the sequence (Q9UM73 whole entry L1196M, looked up) above, with C1156Y, M1196L counted along it"}, "[15]": {"system": "FLT3 (human), P36888 [R834Q]"}}}
{"molecule": "Cc1cn(-c2cc(C(=O)Nc3ccc(C)c(NC(=O)c4ccno4)c3)cc(C(F)(F)F)c2)cn1", "values": [{"measurement": "kinase still bound, per cent of control", "setting": "[1]", "result": 100, "unit": "%"}, {"measurement": "kinase still bound, per cent of control", "setting": "[2]", "result": 100, "unit": "%"}, {"measurement": "kinase still bound, per cent of control", "setting": "[3]", "result": 100, "unit": "%"}, {"measurement": "kinase still bound, per cent of control", "setting": "[4]", "result": 0, "unit": "%"}, {"measurement": "kinase still bound, per cent of control", "setting": "[5]", "result": 7.4, "unit": "%"}, {"measurement": "kinase still bound, per cent of control", "setting": "[6]", "result": 16, "unit": "%"}, {"measurement": "kinase still bound, per cent of control", "setting": "[7]", "result": 5.4, "unit": "%"}, {"measurement": "kinase still bound, per cent of control", "setting": "[8]", "result": 100, "unit": "%"}, {"measurement": "kinase still bound, per cent of control", "setting": "[9]", "result": 100, "unit": "%"}, {"measurement": "kinase still bound, per cent of control", "setting": "[10]", "result": 100, "unit": "%"}, {"measurement": "kinase still bound, per cent of control", "setting": "[11]", "result": 100, "unit": "%"}]}
{"molecule": "COc1cc(C(=O)NC2CCN(C)CC2)ccc1Nc1ncc2c(n1)N(C1CCCC1)CCC(=O)N2C(C)C", "values": [{"measurement": "kinase still bound, per cent of control", "setting": "[1]", "result": 100, "unit": "%"}, {"measurement": "kinase still bound, per cent of control", "setting": "[2]", "result": 100, "unit": "%"}, {"measurement": "kinase still bound, per cent of control", "setting": "[3]", "result": 100, "unit": "%"}, {"measurement": "kinase still bound, per cent of control", "setting": "[4]", "result": 100, "unit": "%"}, {"measurement": "kinase still bound, per cent of control", "setting": "[5]", "result": 100, "unit": "%"}, {"measurement": "kinase still bound, per cent of control", "setting": "[6]", "result": 100, "unit": "%"}, {"measurement": "kinase still bound, per cent of control", "setting": "[7]", "result": 100, "unit": "%"}, {"measurement": "kinase still bound, per cent of control", "setting": "[8]", "result": 100, "unit": "%"}, {"measurement": "kinase still bound, per cent of control", "setting": "[9]", "result": 0, "unit": "%"}, {"measurement": "kinase still bound, per cent of control", "setting": "[10]", "result": 100, "unit": "%"}, {"measurement": "kinase still bound, per cent of control", "setting": "[11]", "result": 100, "unit": "%"}]}
{"molecule": "OCCCNc1cc(-c2ccnc(Nc3cccc(Cl)c3)n2)ccn1", "values": [{"measurement": "kinase still bound, per cent of control", "setting": "[1]", "result": 100, "unit": "%"}, {"measurement": "kinase still bound, per cent of control", "setting": "[2]", "result": 100, "unit": "%"}, {"measurement": "kinase still bound, per cent of control", "setting": "[3]", "result": 100, "unit": "%"}, {"measurement": "kinase still bound, per cent of control", "setting": "[4]", "result": 100, "unit": "%"}, {"measurement": "kinase still bound, per cent of control", "setting": "[5]", "result": 100, "unit": "%"}, {"measurement": "kinase still bound, per cent of control", "setting": "[6]", "result": 100, "unit": "%"}, {"measurement": "kinase still bound, per cent of control", "setting": "[7]", "result": 100, "unit": "%"}, {"measurement": "kinase still bound, per cent of control", "setting": "[8]", "result": 100, "unit": "%"}, {"measurement": "kinase still bound, per cent of control", "setting": "[9]", "result": 100, "unit": "%"}, {"measurement": "kinase still bound, per cent of control", "setting": "[10]", "result": 100, "unit": "%"}, {"measurement": "kinase still bound, per cent of control", "setting": "[11]", "result": 100, "unit": "%"}]}
{"molecule": "COc1cc2ncnc(Nc3cccc(Cl)c3)c2cc1OC", "values": [{"measurement": "kinase still bound, per cent of control", "setting": "[1]", "result": 94, "unit": "%"}, {"measurement": "kinase still bound, per cent of control", "setting": "[12]", "result": 1.3, "unit": "%"}, {"measurement": "kinase still bound, per cent of control", "setting": "[2]", "result": 100, "unit": "%"}, {"measurement": "kinase still bound, per cent of control", "setting": "[3]", "result": 2.5, "unit": "%"}, {"measurement": "kinase still bound, per cent of control", "setting": "[13]", "result": 63, "unit": "%"}, {"measurement": "kinase still bound, per cent of control", "setting": "[4]", "result": 56, "unit": "%"}, {"measurement": "kinase still bound, per cent of control", "setting": "[14]", "result": 31, "unit": "%"}, {"measurement": "kinase still bound, per cent of control", "setting": "[5]", "result": 2.3, "unit": "%"}, {"measurement": "kinase still bound, per cent of control", "setting": "[7]", "result": 82, "unit": "%"}, {"measurement": "kinase still bound, per cent of control", "setting": "[8]", "result": 15, "unit": "%"}, {"measurement": "kinase still bound, per cent of control", "setting": "[9]", "result": 3.4, "unit": "%"}, {"measurement": "kinase still bound, per cent of control", "setting": "[15]", "result": 58, "unit": "%"}, {"measurement": "kinase still bound, per cent of control", "setting": "[10]", "result": 22, "unit": "%"}, {"measurement": "kinase still bound, per cent of control", "setting": "[11]", "result": 3.2, "unit": "%"}]}
{"molecule": "CCC(=O)N1CCN(c2ccc(-n3c(=O)ccc4cnc5ccc(-c6cnc7ccccc7c6)cc5c43)cc2C(F)(F)F)CC1", "values": [{"measurement": "kinase still bound, per cent of control", "setting": "[1]", "result": 69, "unit": "%"}, {"measurement": "kinase still bound, per cent of control", "setting": "[12]", "result": 100, "unit": "%"}, {"measurement": "kinase still bound, per cent of control", "setting": "[2]", "result": 100, "unit": "%"}, {"measurement": "kinase still bound, per cent of control", "setting": "[3]", "result": 84, "unit": "%"}, {"measurement": "kinase still bound, per cent of control", "setting": "[4]", "result": 48, "unit": "%"}, {"measurement": "kinase still bound, per cent of control", "setting": "[6]", "result": 68, "unit": "%"}, {"measurement": "kinase still bound, per cent of control", "setting": "[8]", "result": 18, "unit": "%"}, {"measurement": "kinase still bound, per cent of control", "setting": "[9]", "result": 51, "unit": "%"}, {"measurement": "kinase still bound, per cent of control", "setting": "[10]", "result": 100, "unit": "%"}, {"measurement": "kinase still bound, per cent of control", "setting": "[11]", "result": 80, "unit": "%"}]}
{"molecule": "O=c1[nH]c2ccccc2n1C1CCN(Cc2ccc(-c3nc4cc5[nH]cnc5cc4nc3-c3ccccc3)cc2)CC1", "values": [{"measurement": "kinase still bound, per cent of control", "setting": "[1]", "result": 91, "unit": "%"}, {"measurement": "kinase still bound, per cent of control", "setting": "[12]", "result": 67, "unit": "%"}, {"measurement": "kinase still bound, per cent of control", "setting": "[2]", "result": 68, "unit": "%"}, {"measurement": "kinase still bound, per cent of control", "setting": "[3]", "result": 58, "unit": "%"}, {"measurement": "kinase still bound, per cent of control", "setting": "[13]", "result": 64, "unit": "%"}, {"measurement": "kinase still bound, per cent of control", "setting": "[4]", "result": 87, "unit": "%"}, {"measurement": "kinase still bound, per cent of control", "setting": "[14]", "result": 55, "unit": "%"}, {"measurement": "kinase still bound, per cent of control", "setting": "[5]", "result": 72, "unit": "%"}, {"measurement": "kinase still bound, per cent of control", "setting": "[7]", "result": 92, "unit": "%"}, {"measurement": "kinase still bound, per cent of control", "setting": "[8]", "result": 74, "unit": "%"}, {"measurement": "kinase still bound, per cent of control", "setting": "[9]", "result": 79, "unit": "%"}, {"measurement": "kinase still bound, per cent of control", "setting": "[15]", "result": 100, "unit": "%"}, {"measurement": "kinase still bound, per cent of control", "setting": "[10]", "result": 100, "unit": "%"}, {"measurement": "kinase still bound, per cent of control", "setting": "[11]", "result": 92, "unit": "%"}]}
{"molecule": "CCOc1cc(N2CCC(O)CC2)ccc1Nc1ncc2c(n1)N(C)c1ccccc1C(=O)N2C", "values": [{"measurement": "kinase still bound, per cent of control", "setting": "[1]", "result": 100, "unit": "%"}, {"measurement": "kinase still bound, per cent of control", "setting": "[2]", "result": 100, "unit": "%"}, {"measurement": "kinase still bound, per cent of control", "setting": "[3]", "result": 100, "unit": "%"}, {"measurement": "kinase still bound, per cent of control", "setting": "[4]", "result": 100, "unit": "%"}, {"measurement": "kinase still bound, per cent of control", "setting": "[5]", "result": 100, "unit": "%"}, {"measurement": "kinase still bound, per cent of control", "setting": "[6]", "result": 100, "unit": "%"}, {"measurement": "kinase still bound, per cent of control", "setting": "[7]", "result": 100, "unit": "%"}, {"measurement": "kinase still bound, per cent of control", "setting": "[8]", "result": 100, "unit": "%"}, {"measurement": "kinase still bound, per cent of control", "setting": "[9]", "result": 100, "unit": "%"}, {"measurement": "kinase still bound, per cent of control", "setting": "[10]", "result": 100, "unit": "%"}, {"measurement": "kinase still bound, per cent of control", "setting": "[11]", "result": 100, "unit": "%"}]}
